Measurements as given in US12435087B2, “Modulators of DCN-1 and methods of use thereof” (Cellarity, Inc., priority 2023, dated 2025).
Read-outs that look alike come from different tables or passages of the source.

Key:
DCN1 protein = DCN1 protein (Homo sapiens (Human), UniProt Q96GG9); experiment: Intact protein MS analysis with the RapidFire-TOF system (covalent adduct formation); format: binding; details: 400 nM DCN1, incubated at room temperature for 3 hours
Procedure: (§1) DCN1 protein, His-TEV-DCN1, were expressed in E. Coli. The His-tagged protein was first purified with an Ni-NTA column. The His-tag was cleaved using His-tag TEV protease and the His-tags were removed using a second Ni-NTA column. Protein purity was verified with SDS-PAGE and intact MS. DCN1 was dissolved in a buffer containing 25 mM Tris-HCl, 200 mM NaCl, and 1 mM DTT at 400 nM. 11 concentrations of compounds were added to the DCN1 solution and incubated at room temperature for 3 hours, unless otherwise specified. The reaction plates were quenched by adding 0.2% formic acid. Quenched assay plates were analyzed with an Agilent RapidFire 360 system connected to an Agilent 6545 Q-TOF mass spectrometer equipped with an AJS source. 10 μL of sample volume was loaded onto a custom packed cartridge (4 μL, PLRP-S 30 μm/1000 Å pore; Optimize Technologies) with loading buffer (ddH2O with 0.09% (vol/vol) formic acid and 0.01% (vol/vol) trifluoroacetic acid; 1.25 ml/min) for 6 seconds before being eluted directly into the mass spectrometer in elution buffer (80% acetonitrile with 0.09% (vol/vol) formic acid and 0.01% (vol/vol) trifluoroacetic acid; 0.5 ml/min) for 7 seconds. The cartridge was re-equilibrated with loading buffer for 1 second before collection of the next sample. The Q-TOF was operated in TOF-only positive ionization mode set to the following parameters: Gas Temp=350 C, Drying Gas=7 l/min, Nebulizer=50 psi, Sheath Gas Temp=400 C, Sheath Gas Flow=12 l/min, VCap=4000 V, Nozzle Voltage=1000 V, Fragmentor=125 V, Skimmer=65 V and Oct 1 RF Vpp=750V. Raw MS data files were deconvoluted and analyzed using the Agilent MassHunter Bioconfirm software package to identify both parent protein and expected compound adduct mass signatures.
An MS assay was performed to evaluate the ability of the compounds to covalently modify DCN-1.
as §1, with “Vcap=4000” for “VCap=4000”

[1] = target: DCN1 (DCUND1) protein PONY domain (Homo sapiens (Human), UniProt Q96GG9); experiment: TR-FRET assay (binding to DCN-1, displacement of FAM-labeled probe)
In short: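 Compounds read at 1, 5 and 24 h, 0.1% final DMSO, by TR-FRET between terbium-streptavidin on biotinylated DCN1 PONY domain (E. coli) and a FAM-tagged non-covalent inhibitor probe. Two setups used, 5 nM protein with 20 nM labelled probe, or 0.31 nM protein with 100 nM labelled plus 800 nM unlabelled probe; buffer had TritonX and 200 mM NaCl. % activity relative to high (with probe) and low (without probe) controls.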

[2] = 24 hr after treatment with compound, read-out: TR FRET IC50 24 hr
[3] = read-out: TR FRET IC50 1 hr, 1 hr after treatment with compound
[4] = TR FRET IC50 1 hr (nM), 1 hr after treatment with compound

DCN1 protein, sequence (Q96GG9 whole entry): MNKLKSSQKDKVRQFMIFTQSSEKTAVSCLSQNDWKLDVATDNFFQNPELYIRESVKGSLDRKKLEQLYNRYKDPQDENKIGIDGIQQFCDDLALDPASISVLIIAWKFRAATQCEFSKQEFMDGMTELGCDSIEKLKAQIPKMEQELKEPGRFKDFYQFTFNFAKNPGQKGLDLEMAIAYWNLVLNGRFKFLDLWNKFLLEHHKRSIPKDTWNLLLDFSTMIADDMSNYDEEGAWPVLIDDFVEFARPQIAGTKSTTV
DCN1 (DCUND1) protein PONY domain, sequence (Q96GG9 60-248): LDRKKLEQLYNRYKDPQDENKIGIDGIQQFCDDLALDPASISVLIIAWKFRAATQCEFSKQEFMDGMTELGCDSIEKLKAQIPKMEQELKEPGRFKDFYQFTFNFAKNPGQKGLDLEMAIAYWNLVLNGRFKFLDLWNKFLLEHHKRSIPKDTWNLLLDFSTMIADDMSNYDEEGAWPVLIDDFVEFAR

| SMILES | Emax (DCN1 protein) | IC50 [1, 2] | IC50 [1, 3] | % Adduct Formation (MS Emax) (DCN1 protein) | IC50 [1, 4] |
| --- | --- | --- | --- | --- | --- |
| C=C(CN1CCN(C2COC2)CC1)C(=O)N(C)Cc1cccc([C@@H]2c3cnn(-c4ccccc4)c3N(CC)C(=O)[C@H]2NC(=O)c2nccc(C(F)(F)F)n2)c1 [Compound I-223] | 80 to 100% | ≤ 200 nM | ≤ 200 nM | – | – |
| C=C(CN1CCOCC1)C(=O)Nc1cccc([C@H]2c3c(C)nn(-c4ccccc4)c3N(CC)C(=O)C2NC(=O)c2cccc(C(F)(F)F)c2)c1 (stereo in doubt) [Compound I-83, N-((4S,5R)-7-ethyl-3-methyl-4-(3-(2-(morpholinomethyl)acrylamido)phenyl)-6-oxo-1-phenyl-4,5,6,7-tetrahydro-1H-pyrazolo[3,4-b]pyridin-5-yl)-3-(trifluoromethyl)benzamide] | – | ≤ 200 nM | ≤ 200 nM | ++ (MS Emax % adduct formation greater than 30.0 and less than or equal to 80.0) | – |
| C=C(C(=O)NCc1cccc([C@@H]2c3cnn(-c4ccccc4)c3N(CC)C(=O)[C@H]2NC(=O)c2nccc(C(F)(F)F)n2)c1)C(C)N(C)C1COC1 (stereo partly drawn) [Compound I-217] | 80 to 100% | ≤ 200 nM | ≤ 200 nM | – | – |
| CCN1C(=O)[C@H](NC(=O)c2cccc(C(F)(F)F)c2)[C@@H](c2cccc(N3CC=CS3(=O)=O)c2)c2c(C)nn(-c3ccccc3)c21 (racemic) [Compound I-130, rac-N-((4R,5S)-4-(3-(1,1-dioxidoisothiazol-2 (3H)-yl)phenyl)-7-ethyl-3-methyl-6-oxo-1-phenyl-4,5,6,7-tetrahydro-1H-pyrazolo[3,4-b]pyridin-5-yl)-3-(trifluoromethyl)benzamide] | 0 to 30% | 200 to 1000 nM | – | – | > 3000 nM |
| C=C(CN1CCOCC1)C(=O)Nc1cccc([C@H]2c3c(C)nn(-c4ccccc4)c3N(CC)C(=O)[C@@H]2NC(=O)c2ccn(C(F)(F)F)n2)c1 (racemic) [Compound I-65] | 80 to 100% | ≤ 200 nM | ≤ 200 nM | – | – |
| C=C(CN1CC2(COC2)C1)C(=O)N(C)Cc1cccc([C@@H]2c3cnn(-c4ccccc4)c3N(CC)C(=O)[C@H]2NC(=O)c2cccc(C(F)(F)F)c2)c1 [Compound I-219] | 80 to 100% | ≤ 200 nM | – | – | 200 to 1000 nM |
| C=C(CN1CCC(F)(F)C1)C(=O)Nc1cccc([C@@H]2c3c(C)nn(-c4ccccc4)c3N(CC)C(=O)[C@H]2NC(=O)c2cccc(C(F)(F)F)c2)c1 (racemic) [Compound I-60] | 80 to 100% | ≤ 200 nM | ≤ 200 nM | – | – |
| C=C(CN1CCC(F)(F)C1)C(=O)NCc1cccc([C@@H]2c3cnn(-c4ccccc4)c3N(CC)C(=O)[C@H]2NC(=O)c2cccc(C(F)(F)F)c2)c1 [Compound I-44] | 80 to 100% | ≤ 200 nM | – | – | 200 to 1000 nM |
| CC#CC(=O)Nc1cccc([C@H]2c3c(C)nn(-c4ccccc4)c3N(CC)C(=O)[C@H]2NC(=O)c2cccc(C(F)(F)F)c2)c1 (racemic) [Compound I-19] | 0 to 30% | > 3000 nM | – | – | > 3000 nM |
| C/C=C/C(=O)Nc1cccc([C@H]2c3c(C)nn(-c4ccccc4)c3N(CC)C(=O)[C@H]2NC(=O)c2cccc(C(F)(F)F)c2)c1 (racemic) [Compound I-23] | 0 to 30% | > 3000 nM | – | – | > 3000 nM |
| C/C=C(\CN1CCN(C2COC2)CC1)C(=O)NCc1cccc([C@@H]2c3cnn(-c4ccccc4)c3N(CC)C(=O)[C@H]2NC(=O)c2nccc(C(F)(F)F)n2)c1 [Compound I-220] | 80 to 100% | ≤ 200 nM | – | – | 200 to 1000 nM |
| CCN1C(=O)[C@H](NC(=O)c2cccc(C(F)(F)F)c2)[C@@H](c2cccc(NC(=O)/C(C#N)=C/C(C)C)c2)c2c(C)nn(-c3ccccc3)c21 (racemic) [Compound I-46, rac-N-((4R,5S)-4-(3-((E)-2-cyano-4-methylpent-2-enamido)phenyl)-7-ethyl-3-methyl-6-oxo-1-phenyl-4,5,6,7-tetrahydro-1H-pyrazolo[3,4-b]pyridin-5-yl)-3-(trifluoromethyl)benzamide] | 80 to 100% | ≤ 200 nM | – | – | ≤ 200 nM |
| C=C(CN1CC(F)(F)C1)C(=O)NCc1cccc([C@@H]2c3cnn(-c4ccccc4)c3N(CC)C(=O)[C@H]2NC(=O)c2cccc(C(F)(F)F)c2)c1 [Compound I-14] | 80 to 100% | ≤ 200 nM | ≤ 200 nM | – | – |
| CCN1C(=O)[C@H](NC(=O)c2cccc(C(F)(F)F)c2)[C@@H](c2cccc(NC(=O)C#CCN(C)C)c2)c2c(C)nn(-c3ccccc3)c21 (racemic) [Compound I-133, rac-N-((4R,5S)-4-(3-(4-(dimethylamino)but-2-ynamido)phenyl)-7-ethyl-3-methyl-6-oxo-1-phenyl-4,5,6,7-tetrahydro-1H-pyrazolo[3,4-b]pyridin-5-yl)-3-(trifluoromethyl)benzamide] | 80 to 100% | ≤ 200 nM | – | – | ≤ 200 nM |
| CCN1CC=C(C(=O)Nc2cccc([C@@H]3c4c(C)nn(-c5ccccc5)c4N(CC)C(=O)[C@H]3NC(=O)c3ccn(C(F)(F)F)n3)c2)C1 [Compound I-227] | 80 to 100% | ≤ 200 nM | – | – | 200 to 1000 nM |
| CCN1C(=O)[C@H](NC(=O)c2cccc(C(F)(F)F)c2)[C@@H](c2cccc(N3CC=CC3=O)c2)c2c(C)nn(-c3ccccc3)c21 (racemic) [Compound I-28, rac-N-((4R,5S)-7-ethyl-3-methyl-6-oxo-4-(3-(2-oxo-2,5-dihydro-1H-pyrrol-1-yl)phenyl)-1-phenyl-4,5,6,7-tetrahydro-1H-pyrazolo[3,4-b]pyridin-5-yl)-3-(trifluoromethyl)benzamide] | 80 to 100% | 1000 to 3000 nM | – | – | 1000 to 3000 nM |
| C=C(CN1CCOCC1)C(=O)NCc1cccc([C@@H]2c3cnn(-c4ccccc4)c3N(CC)C(=O)[C@H]2NC(=O)c2ccn(C(F)(F)F)n2)c1 [Compound I-135] | 80 to 100% | ≤ 200 nM | ≤ 200 nM | – | – |
| C=C(C(=O)NCc1cccc([C@@H]2c3cnn(-c4ccccc4)c3N(CC)C(=O)[C@H]2NC(=O)c2nccc(C(F)(F)F)n2)c1)C(C)N1CC2(COC2)C1 (stereo partly drawn) [Compound I-221, N-((4R,5S)-7-ethyl-4-(3-((2-methylene-3-(2-oxa-6-azaspiro[3.3]heptan-6-yl)butanamido)methyl)phenyl)-6-oxo-1-phenyl-4,5,6,7-tetrahydro-1H-pyrazolo[3,4-b]pyridin-5-yl)-4-(trifluoromethyl)pyrimidine-2-carboxamide] | 80 to 100% | ≤ 200 nM | ≤ 200 nM | – | – |
| C/C=C(\CN1CCN(C2COC2)CC1)C(=O)Nc1cccc([C@@H]2c3cnn(-c4ccccc4)c3N(CC)C(=O)[C@H]2NC(=O)c2ccn(C3CC3)n2)c1 [Compound I-233] | 80 to 100% | ≤ 200 nM | – | – | ≤ 200 nM |
| CCN1C(=O)[C@H](NC(=O)c2cccc(C(F)(F)F)c2)[C@@H](c2cccc(NC(=O)[C@H](F)Cl)c2)c2c(C)nn(-c3ccccc3)c21 (mixture of isomers) [Compound I-150] | 80 to 100% | 200 to 1000 nM | – | – | 1000 to 3000 nM |
| C/C=C(\CN1CCOCC1)C(=O)Nc1cccc([C@@H]2c3c(C)nn(-c4ccccc4)c3N(CC)C(=O)[C@H]2NC(=O)c2cccc(C(F)(F)F)c2)c1 (racemic) [Compound I-142] | 80 to 100% | ≤ 200 nM | – | – | ≤ 200 nM |
